Series [1] deals with Echinochloa oryzoides (Ard.) Fritsch. The series can be described thus: Preemergence weed control under flooded paddy conditions, ECHORC (Watergrass (Calif.)). The settings on record: preemergence, flooded paddy, rated three to four weeks after treatment. The format is in vivo.
Series [2] concerns Sagittaria pygmaea, L. Put plainly: Preemergence weed control under flooded paddy conditions, SAGPY (Arrowhead (Pygmaea)). The series is classed as in vivo. The settings on record: preemergence, flooded paddy, rated three to four weeks after treatment.
Series [3] relates to Oryza sativa, (L.) Tebonnet. The series can be described thus: Rice tolerance to post-transplant applications under flooded paddy conditions (Example 187), ORYSAT (Rice, Tebonnet). The settings on record: rated three to four weeks after treatment.
For series [4], the system named is Cyperus iria. The series can be described thus: Preemergence weed control under flooded paddy conditions, CYPIR (Rice Flatsedge). The series is classed as in vivo. The settings on record: preemergence, flooded paddy, rated three to four weeks after treatment.
For series [5], the system named is Monochoria vaginalis, Presl. Put plainly: Preemergence weed control under flooded paddy conditions, MOOVA (Monochoria). The format is in vivo. The settings on record: preemergence, flooded paddy, rated three to four weeks after treatment.
For series [6], the system named is Cyperus serotinus, Rottb. The series can be described thus: Preemergence weed control under flooded paddy conditions, CYPSE (Flatsedge). The format is in vivo. The settings on record: preemergence, rated three to four weeks after treatment.

As for `Cn1c(C(F)(F)F)cc(=O)n(-c2ccc3snc(C(C)(C)C(N)=O)c3c2)c1=O` [Example 509, 1,2-Benzisothiazole-3-acetamide, 5-[3,6-dihydro-3-methyl-2,6-dioxo-4-(trifluoromethyl)-1(2H)-pyrimidinyl]-alpha,alpha-dimethyl-], the ECHORC herbicidal rating is listed as 0.0 in series [1] (0.0620 kg/ha), 2.0 in series [1] (0.1250 kg/ha) and 7.0 in series [1] (0.2500 kg/ha). Also, the values for the SAGPY herbicidal rating in series [2] (0.0620 kg/ha), in series [2] (0.1250 kg/ha) and in series [2] (0.2500 kg/ha) were 0.0, 3.0 and 6.0, respectively. Further, the figures for the “ORYSAT herbicidal rating (rice tolerance)” value (“ORYSAT herbicidal rating” for short) in series [3] (0.0620 kg/ha), in series [3] (0.1250 kg/ha) and in series [3] (0.2500 kg/ha) were 0.0, 3.0 and 7.0, respectively. For the same molecule, the figures for the CYPIR herbicidal rating in series [4] (0.0620 kg/ha), in series [4] (0.1250 kg/ha) and in series [4] (0.2500 kg/ha) were 0.0, 4.0 and 7.0, respectively. The MOOVA herbicidal rating in series [5] (0.0620 kg/ha) was 0.0; in series [5] (0.1250 kg/ha), 4.0; in series [5] (0.2500 kg/ha), 9.0. Moreover, the CYPSE herbicidal rating in series [6] (0.0620 kg/ha) was 0.0; in series [6] (0.1250 kg/ha), 0.0; in series [6] (0.2500 kg/ha) it was 7.0.

For `Cn1c(C(F)(F)F)cc(=O)n(-c2ccc3snc(C(C)(C)C(=O)OCc4ccccn4)c3c2)c1=O` [Example 510, 1,2-Benzisothiazole-3-acetic acid, 5-[3,6-dihydro-3-methyl-2,6-dioxo-4-(trifluoromethyl)-1(2H)-pyrimidinyl]-alpha,alpha-dimethyl-, 2-pyridylmethyl ester], the ECHORC herbicidal rating in series [1] (0.0320 kg/ha), in series [1] (0.0620 kg/ha), in series [1] (0.1250 kg/ha) and in series [1] (0.2500 kg/ha) was 9.0 throughout. For the same molecule, the SAGPY herbicidal rating in series [2] (0.0320 kg/ha) came out at 3.0; in series [2] (0.0620 kg/ha) it was 4.0; in series [2] (0.1250 kg/ha), 5.0; in series [2] (0.2500 kg/ha), 6.0. Besides, the “ORYSAT herbicidal rating” value is recorded as 0.0 in series [3] (0.0320 kg/ha), 2.0 in series [3] (0.0620 kg/ha), 4.0 in series [3] (0.1250 kg/ha) and 8.0 in series [3] (0.2500 kg/ha). Also, the CYPIR herbicidal rating in series [4] (0.0320 kg/ha) worked out at 0.0; in series [4] (0.0620 kg/ha) it was 3.0; in series [4] (0.1250 kg/ha), 7.0; in series [4] (0.2500 kg/ha), 8.0. Also, the MOOVA herbicidal rating in series [5] (0.0320 kg/ha) was found to be 6.0; in series [5] (0.0620 kg/ha) it was 7.0; in series [5] (0.1250 kg/ha), 9.0; in series [5] (0.2500 kg/ha) it was 9.0. Besides, the CYPSE herbicidal rating in series [6] (0.0320 kg/ha) was 0.0; in series [6] (0.0620 kg/ha) it was 0.0; in series [6] (0.1250 kg/ha) it was 3.0; in series [6] (0.2500 kg/ha), 5.0.

Take `CC(C)N(C(C)C)S(=O)(=O)NC(=O)COc1ccccc1-c1nsc2ccc(-n3c(=O)cc(C(F)(F)F)n(C)c3=O)cc12` [Example 512, Acetamide, 2-{o-{5-[3,6-dihydro-3-methyl-2,6-dioxo-4-(trifluoromethyl)-1(2H)-pyrimidinyl]-1,2-benzisothiazol-3-yl}phenoxy}-N-(diisopropyl-sulfamoyl)-]: the ECHORC herbicidal rating in series [1] (0.0320 kg/ha) was 7.0; in series [1] (0.0620 kg/ha) it was 7.0; in series [1] (0.1250 kg/ha) it was 9.0; in series [1] (0.2500 kg/ha) it was 9.0. Further, the SAGPY herbicidal rating in series [2] (0.0320 kg/ha) is 0.0; in series [2] (0.0620 kg/ha) it was 0.0; in series [2] (0.1250 kg/ha), 2.0; in series [2] (0.2500 kg/ha), 4.0. Besides, the “ORYSAT herbicidal rating” value is 0.0 in series [3] (0.0320 kg/ha), 0.0 in series [3] (0.0620 kg/ha), 1.0 in series [3] (0.1250 kg/ha) and 2.0 in series [3] (0.2500 kg/ha). Also, the CYPIR herbicidal rating in series [4] (0.0320 kg/ha) is given as 0.0; in series [4] (0.0620 kg/ha) it was 2.0; in series [4] (0.1250 kg/ha), 5.0; in series [4] (0.2500 kg/ha), 5.0. Moreover, the MOOVA herbicidal rating in series [5] (0.0320 kg/ha), in series [5] (0.0620 kg/ha), in series [5] (0.1250 kg/ha) and in series [5] (0.2500 kg/ha) was 9.0 throughout. Moreover, the CYPSE herbicidal rating in series [6] (0.0320 kg/ha), in series [6] (0.0620 kg/ha), in series [6] (0.1250 kg/ha) and in series [6] (0.2500 kg/ha) was 0.0 throughout.

`COC(=O)c1nsc2cc(F)c(-n3c(=O)cc(C(F)(F)F)n(C)c3=O)cc12` [Example 513, 1,2-Benzisothiazole-3-carboxylic acid, 5-[3,6-dihydro-3-methyl-2,6-dioxo-4-(trifluoromethyl)-1(2H)-pyrimidinyl]-6-fluoro-, methyl ester]: the ECHORC herbicidal rating is listed as 0.0 in series [1] (0.0320 kg/ha), 5.0 in series [1] (0.0620 kg/ha), 7.0 in series [1] (0.1250 kg/ha) and 8.0 in series [1] (0.2500 kg/ha). Also, the SAGPY herbicidal rating in series [2] (0.0320 kg/ha), in series [2] (0.0620 kg/ha), in series [2] (0.1250 kg/ha) and in series [2] (0.2500 kg/ha) was 9.0 throughout. In addition, the “ORYSAT herbicidal rating” value in series [3] (0.0320 kg/ha) was found to be 9.0; in series [3] (0.0620 kg/ha), 7.0; in series [3] (0.1250 kg/ha), 9.0; in series [3] (0.2500 kg/ha), 9.0. The CYPIR herbicidal rating in series [4] (0.0320 kg/ha) is reported as 4.0; in series [4] (0.0620 kg/ha) it was 4.0; in series [4] (0.1250 kg/ha), 6.0; in series [4] (0.2500 kg/ha) it was 9.0. Moreover, the MOOVA herbicidal rating in series [5] (0.0320 kg/ha), in series [5] (0.0620 kg/ha), in series [5] (0.1250 kg/ha) and in series [5] (0.2500 kg/ha) was 9.0 throughout. Besides, the CYPSE herbicidal rating in series [6] (0.0320 kg/ha), in series [6] (0.0620 kg/ha), in series [6] (0.1250 kg/ha) and in series [6] (0.2500 kg/ha) was 9.0 throughout.

With `Cc1ccc(OC(C)(C)C(=O)OC(C)(C)C)c(-c2nsc3ccc(-n4c(=O)cc(C(F)(F)F)n(C)c4=O)cc23)c1` [Example 514, Propionic acid, 2-{{2-{5-[3,6-dihydro-3-methyl-2,6-dioxo-4-(trifluoromethyl)-1(2H)-pyrimidinyl]-1,2-benzisothiazol-3-yl}-p-tolyl}oxy}-2-methyl-, tert-butyl ester], the ECHORC herbicidal rating in series [1] (0.0320 kg/ha) was 0.0; in series [1] (0.0620 kg/ha) it was 1.0; in series [1] (0.1250 kg/ha) it was 2.0; in series [1] (0.2500 kg/ha) it was 8.0. For the same molecule, the SAGPY herbicidal rating in series [2] (0.0320 kg/ha), in series [2] (0.0620 kg/ha), in series [2] (0.1250 kg/ha) and in series [2] (0.2500 kg/ha) was 0.0 each time. The “ORYSAT herbicidal rating” value in series [3] (0.0320 kg/ha) amounted to 2.0; in series [3] (0.0620 kg/ha), 2.0; in series [3] (0.1250 kg/ha), 1.0; in series [3] (0.2500 kg/ha), 4.0. In addition, the CYPIR herbicidal rating in series [4] (0.0320 kg/ha) is 0.0; in series [4] (0.0620 kg/ha), 0.0; in series [4] (0.1250 kg/ha), 2.0; in series [4] (0.2500 kg/ha), 7.0. The MOOVA herbicidal rating in series [5] (0.0320 kg/ha), in series [5] (0.0620 kg/ha), in series [5] (0.1250 kg/ha) and in series [5] (0.2500 kg/ha) was 9.0 each time. Further, the CYPSE herbicidal rating in series [6] (0.0320 kg/ha), in series [6] (0.0620 kg/ha), in series [6] (0.1250 kg/ha) and in series [6] (0.2500 kg/ha) was 0.0 each time.

As to `Cc1ccc(OC(C)(C)C(=O)O)c(-c2nsc3ccc(-n4c(=O)cc(C(F)(F)F)n(C)c4=O)cc23)c1` [Example 515, Propionic acid, 2-{{2-{5-[3,6-dihydro-3-methyl-2,6-dioxo-4-(trifluoromethyl)-1(2H)-pyrimidinyl]-1,2-benzisothiazol-3-yl}-p-tolyl}oxy}-2-methyl-], the ECHORC herbicidal rating in series [1] (0.0320 kg/ha) is 2.0; in series [1] (0.0620 kg/ha) it was 6.0; in series [1] (0.1250 kg/ha), 8.0; in series [1] (0.2500 kg/ha), 9.0. The SAGPY herbicidal rating in series [2] (0.0320 kg/ha), in series [2] (0.0620 kg/ha), in series [2] (0.1250 kg/ha) and in series [2] (0.2500 kg/ha) was 0.0 throughout. For the same molecule, the “ORYSAT herbicidal rating” value was determined as 0.0 in series [3] (0.0320 kg/ha), 2.0 in series [3] (0.0620 kg/ha), 4.0 in series [3] (0.1250 kg/ha) and 6.0 in series [3] (0.2500 kg/ha). For the same molecule, the CYPIR herbicidal rating is listed as 0.0 in series [4] (0.0320 kg/ha), 2.0 in series [4] (0.0620 kg/ha), 4.0 in series [4] (0.1250 kg/ha) and 7.0 in series [4] (0.2500 kg/ha). For the same molecule, the MOOVA herbicidal rating in series [5] (0.0320 kg/ha), in series [5] (0.0620 kg/ha), in series [5] (0.1250 kg/ha) and in series [5] (0.2500 kg/ha) was 9.0 in each case. Moreover, the CYPSE herbicidal rating in series [6] (0.0320 kg/ha), in series [6] (0.0620 kg/ha), in series [6] (0.1250 kg/ha) and in series [6] (0.2500 kg/ha) was 0.0 throughout.

The values are drawn from patent EP0908457B1, “3-(1,2-benzisothiazol- and isoxazol-5-Y1)-2,4(1H,3H)-pyrimidinedione or thione and 3-(1,2-benzisothiazol- and isoxazol-5-y1)-4(3H)-pyrimidinone or thione herbicidal agents” (BASF AKTIENGESELLSCHAFT, priority 1997, dated 1999).
